Tests used:
[1] = system: peritoneal elicited macrophages (PEM); test: Cytotoxicity, peritoneal elicited macrophages (PEM); format: cell-based, mouse; details: peritoneal elicited macrophages; read-out: Cytotoxicity IC50, PEM
[2] = system: L. donovani Ld39 promastigotes; test: Anti-promastigote activity (MTS assay), L. donovani Ld39; format: cell-based; details: 72 hours
Outline: (§1)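 Promastigotes (1×10^5 per well) in Schneider's medium pH 6.9 with 10% FBS, exposed to serial compound concentrations for 72 h at 27 °C. Viability by MTS/PMS reduction over 4 h, OD 490 nm; IC50 derived.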

[3] = system: L. braziliensis UA847 amastigotes; test: Anti-amastigote activity in infected PEM, L. braziliensis UA847; format: cell-based; details: 3 days, Giemsa, read-out: Anti-amastigote activity IC50, L. baziliensis UA847
Outline: (§2)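 IC50 values derive from the number of amastigotes per 100 macrophages, counted on Giemsa-stained cover slips. Infected mouse PEM had been treated for 72 h at 37 °C.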

[4] = system: L. donovani HU3 promastigotes; test: Anti-promastigote activity (MTS assay), L. donovani HU3; format: cell-based; details: 72 hours
Outline: as §1

[5] = system: L. amazonensis LV78 amastigotes; test: Anti-amastigote activity in infected PEM, L. amazonensis LV78; format: cell-based; details: infected PEM, 3 days, Giemsa
Outline: as §2

[6] = system: L. donovani Ld39 amastigotes (SSG-resistant); test: Anti-amastigote activity in infected PEM, L. donovani Ld39; format: cell-based; details: infected PEM, 3 days, Giemsa; SSG-resistant
Outline: as §2

[7] = system: RAW264.7 cells; test: Cytotoxicity, RAW264.7 macrophages; format: cell-based; details: murine macrophages RAW264.7
Procedure: Promastigotes of visceral L. donovani Ld39 and LdHU3, and cutaneous L. amazonensis LV78, L. braziliensis UA847 and L. major FV1 were employed in the study. All strains were cultured in Schneider's Drosophila Medium (Invitrogen), pH 6.9 supplemented with 10% (v/v) heat inactivated fetal bovine serum (Hyclone) with 4 mM glutamine (Sigma) and 25 μg/mL gentamicin solution (Invitrogen) at 27° C. for 4 days. RAW264.7 cells were cultured in supplemented DMEM media with 10% heat inactivated FBS and 100 U/mL penicillin and 100 μg/mL of streptomycin. They were maintained at 37° C. in a humidified atmosphere with 5% CO2. The cells were split constantly after a confluent monolayer has been formed. The cells were harvested by a cell scraper.
IC50 values of known antileishmanials and the amine-containing flavonoid monomers of the present invention to promastigotes (L. amazonensis LV78, L major FV1, L. donovani HU3, L. donovani 39), macrophages (Raw 264.7 and PEM) and mouse fibroblast (L929) were determined. The anti-promastigotes activities and cytotoxicity of the amine-containing flavonoid monomers of the invention are shown in Table 1.

[8] = system: L. amazonensis LV78 promastigotes; test: Anti-promastigote activity (MTS assay), L. amazonensis LV78; format: cell-based; details: 72 hours
Outline: as §1

[9] = system: L. amazonensis LV78 promastigotes; test: Reactive oxygen species (ROS) level, DCFDA, promastigotes; format: cell-based; details: 30 μM
Procedure: (§3) 50,000 RAW264.7 were seeded in each well of black 96-well plates overnight. Next day, RAW264.7 cells were pre-loaded with 10 μM dichlorofluorescein diacetate (DCFDA) (Abcam) for 1 hr at 37° C. with 5% CO2. A control of non-DCFDA stained cells was also included. The DCFDA-contained supplemented DMEM media was removed. The cells were re-suspended with 10 μM or 30 μM of respective tested compounds and positive control, tert-butyl hydroperoxide. In Leishmania, 1×10^7 promastigotes were also pre-loaded with 10 μM DCFDA at 27° C. for 1 hr. After removing the DCFDA-contained media, the promastigotes were seeded into black 96-well plate and incubated with 30 μM of respective compounds or positive control. The ROS level was determined at different periods of time including 2, 4, 6, 8, 20, 46 and 72 hr using microplate reader (excitation: 485 nm and emission: […]).
(§4) The ROS levels in both macrophage RAW264.7 and L. amazonensis promastigotes was measured by dichlorofluorescein diacetate (DCFDA) dye which is permeable to the cells. With oxidative stress, DCFDA would be oxidized to fluorescent DCF which is an indicator of intracellular ROS level. RAW cells or L. amazonensis promastigotes were pre-loaded with 10 μM of DCFDA for 1 hr, washed and exposed to 39, FM09, pentamidine and amphotericin B for different period of time (2, 4, 6, 8, 20, 46 and 72 hr). The fluorescence level was measured at the 520 nm using 485 nm as an excitation wavelength. 0.1% DMSO or 0.3% DMSO was used as a solvent control. The fluorescent value has been subtracted from non-DCFDA stained cells. The values were presented as mean±standard error of mean.

[10] = system: RAW264.7 cells; test: Reactive oxygen species (ROS) level, DCFDA, RAW264.7; format: cell-based, murine
Procedure: as §3, §4

[11] = system: L. major FV1 promastigotes; test: Anti-promastigote activity (MTS assay), L. major FV1; format: cell-based; details: 72 hours
Outline: as §1

## C[C@@H]1[C@H](O)[C@@H](C)/C=C/C=C/C=C/C=C/C=C/C=C/C=C/[C@H](O[C@@H]2O[C@H](C)[C@@H](O)[C@H](N)[C@@H]2O)C[C@@H]2O[C@](O)(C[C@@H](O)C[C@@H](O)[C@H](O)CC[C@@H](O)C[C@@H](O)CC(=O)O[C@H]1C)C[C@H](O)[C@H]2C(=O)O [Amphotericin B]
[1]
  IC50: 7.4 ± 0.4 µM
[2]
  IC50: 95 ± 20 nM
[3]
  IC50: 49 ± 10 nM
[4]
  IC50: 200 nM
[5]
  IC50: 55 ± 29 nM
[6]
  IC50: 62 nM
[7]
  IC50: 12 ± 2.5 µM
[8]
  IC50: 240 ± 30 nM
[9]; 2 hr
  L. amazon LV78 promastigote ROS Level, Relative fold (RF): 4.5 fold
[9]; 4 hr
  L. amazon LV78 promastigote ROS Level, Relative fold (RF): 5.6 fold
[9]; 6 hr
  L. amazon LV78 promastigote ROS Level, Relative fold (RF): 7.5 fold
[9]; 20 hr
  L. amazon LV78 promastigote ROS Level, Relative fold (RF): 21 fold
[9]; 46 hr
  L. amazon LV78 promastigote ROS Level, Relative fold (RF): 27.1 fold
[9]; 72 hr
  L. amazon LV78 promastigote ROS Level, Relative fold (RF): 24.9 fold
[10]; 10 μM, 2 hr
  RAW264.7 ROS Level, Relative fold (RF): 1.4 fold
[10]; 10 μM, 4 hr
  RAW264.7 ROS Level, Relative fold (RF): 1.4 fold
[10]; 10 μM, 6 hr
  RAW264.7 ROS Level, Relative fold (RF): 1.4 fold
[10]; 10 μM, 8 hr
  RAW264.7 ROS Level, Relative fold (RF): 1.2 fold
[10]; 10 μM, 20 hr
  RAW264.7 ROS Level, Relative fold (RF): 1.0 fold
[10]; 10 μM, RAW264.7
  ROS induction in macrophages: No ROS induction
[10]; 30 μM, 2 hr
  RAW264.7 ROS Level, Relative fold (RF): 1.6 fold
[10]; 30 μM, 4 hr
  RAW264.7 ROS Level, Relative fold (RF): 1.6 fold
[10]; 30 μM, 6 hr
  RAW264.7 ROS Level, Relative fold (RF): 1.5 fold
[10]; 30 μM, 20 hr
  RAW264.7 ROS Level, Relative fold (RF): 1.3 fold
[10]; 30 μM, 46 hr
  RAW264.7 ROS Level, Relative fold (RF): 1.3 fold
[11]
  IC50: 290 ± 50 nM

— US10111854B2, “Synthesis and use of amine-containing flavonoids as potent anti-leishmanial agents” (The Hong Kong Polytechnic University, priority 2014, dated 2018)
